Source: patent US6841661B2, “Glycopeptide antibacterial compounds, compositions containing same and methods of using same” (Princeton Univerisity, priority 1999, dated 2005)

Legend:
[1] = tested on: E. faecium CL 5242 (VanA); test: microbe, parasite or virus in culture; assay type: cell-based; set-up: CL5242 (in vitro testing): unit not given here; details: Tables 7 and 8; unit not given
Excerpt: (§1) National Committee for Clinical Laboratory Standards (NCCLS) guidelines [Methods for Dilution Antimicrobial Susceptibility Tests for Bacteria that Grow Aerobically-Fourth Edition; Approved Standard (NCCLS Document M7-A4, January 1997)] are used to establish the assay, although variations are made to optimize the published method according to the specific needs of the present investigation.
(§2) The test panel currently includes eight enterococci and 13 staphylococci, which are selected based upon their antibiotic susceptibility profiles. The methicillin-sensitive Staphylococcus aureus (MSSA) strain MB2985 (Smith isolate) is used to assesses the potential for serum protein binding of the compounds. The paired Gram-negative strains ASP #49 (envA-) and ASP #50 (envA+) (M. Salvatore/N. Lee) are included to judge membrane effects. Table 3 presents a detailed description of the strains included in the panel, including some of the sources of the strains of bacteria.
(§3) The glycopeptide antibiotic teicoplanin is included whenever possible.
(§4) TSB, containing 10% HS* for vancomycin intermediate S. aurcus/methicillin-resistant S. aureus (VISA/MRSA) strains, is inoculated from an appropriate source (frozen broth or agar slant) and grown approximately 17 hr at 35° C. with shaking at 220 rpm. Cultures are grown in tubes with a volume of 5 ml for enterococci and 2 ml for all other strains.
(§5) Four milliliter (4 ml) overnight culture is added to 36 ml physiological saline to obtain tenfold dilutions (enterococci). Overnight culture (0.4 ml) is added to 39.6 ml saline to obtain 100-fold dilutions (all strains except enterococci). Diluted cultures are maintained on ice until time of inoculation of test plates.
(§6) The number of CFU/mL is determined on BHI agar plates, although this is not done routinely because titers of overnight cultures are relatively constant. The test media include: • BHI for enterococci and VISA/MRSA; • MH II (i.e., cation-adjusted Mueller-Hinton broth) for MRS, MSS and E. coli.; • MH II+HSA for MSSA is prepared as follows: • a. 2×MHII+86mg/ml HSA • b. Dissolve 4.3 g HSA in 50 ml autoclaved 2x MH II. • c. pH to 7.0 by adding 2M MOPS, sodium. • d. Filter sterilize using 0.22 μm Coming cellulose acetate filter, used because of reported low protein binding. • e. 1×MH II+43 mg/ml HSA • f. Dilute the 2×medium twofold and filter as above. 5.8.6. Preparation of Test Plates
(§7) Using a Denley liquid handling system (or similar automatic device), 100 μ1×medium is added to each well in columns 2-12 of a 96-well microtiter dish. Using a multichannel pipettor, 100 μl 2×medium is added to each well in column 1. Plates may be filled on the day prior to assay, wrapped in plastic bags and refrigerated.
(§8) Vancomycin, Schering 29482, and teicoplanin are prepared on a weight per volume basis using 10 mM 3-(N-morpholino)propane-sulfonic acid (MOPS) buffer pH 7. Test compounds are received in solution in appropriate solvent (typically as 1 mg/ml in DMSO) or are dissolved in appropriate solvent prior to further dilution in 10 mM MOPS buffer, ph7. Consistent with NCCLS guidelines, antibiotics are handled aseptically but are not otherwise sterilized.
(§9) 100 μl appropriately diluted antibiotic solution is added to the first well of the designated row of the 96-well microtiter dish and serially diluted by twofold across the row using the Denley liquid handling system. With the aid of a Dynatech NEC 2000 inoculator, each well of the microtiter dish is inoculated with 1.5 μl diluted overnight culture, yielding approximately 1-5×10^6 CFU/ml for enterococci and approximately 3-7×10^5 CFU/ml for all other strains. Dishes are placed in stacks of no more than five, wrapped in plastic bags and incubated at 35° C. • Indication of result(s) type (% INH, IC50, Zone size, etc.) • MIC=minimum inhibitory concentration ps 5.8.9. Interpretation of the Results on the Basis of Activity […]

[2] = tested on: E. faecium CL 4931 (VanA); test: microbe, parasite or virus in culture; assay type: cell-based; set-up: CL4931 (in vitro testing): unit not given here; details: Tables 7 and 8; unit not given
Excerpt: as §1, §2, §3, §4, §5, §6, §7, §8, §9

[3] = tested on: E. faecalis CL 4877 (VanB); test: microbe, parasite or virus in culture; assay type: cell-based; set-up: CL4877 (in vitro testing): unit not given here; details: Tables 7 and 8; unit not given
Excerpt: as §1, §2, §3, §4, §5, §6, §7, §8, §9

[4] = tested on: E. faecium CL 5053 (VanA); test: microbe, parasite or virus in culture; assay type: cell-based; set-up: CL5053 (in vitro testing): unit not given here; details: Tables 7 and 8; unit not given
Excerpt: as §1, §2, §3, §4, §5, §6, §7, §8, §9

[5] = tested on: CL 4931, CL 5053, CL 5242 and CL 4877; assay type: cell-based, E. faecium, E. faecalis; set-up: unit not given here; details: mean of CL4931, CL5053, CL5242, CL4877; unit not given
Excerpt: as §1, §2, §3, §4, §5, §6, §7, §8, §9

Row | SMILES | CL5242 (in vitro testing) [1] | CL4931 (in vitro testing) [2] | CL4877 (in vitro testing) [3] | CL5053 (in vitro testing) [4] | Mean [5]
1 | CNC(CC(C)C)C(=O)NC1C(=O)NC(CC(N)=O)C(=O)NC2C(=O)NC3C(=O)NC(C(=O)NC(C(=O)O)c4cc(O)cc(O)c4-c4cc3ccc4O)C(O)c3ccc(c(Cl)c3)Oc3cc2cc(c3OC2OC(CNCc3ccc(N)cc3)C(O)C(O)C2OC2CC(C)(NCc3ccc(OCc4ccc(Cl)c(Cl)c4)cc3)C(O)C(C)O2)Oc2ccc(cc2Cl)C1O (stereo not drawn) [Compound 133] | 0.5 | 2 | 0.03 | 2 | 1.1
2 | CNC(CC(C)C)C(=O)NC1C(=O)NC(CC(N)=O)C(=O)NC2C(=O)NC3C(=O)NC(C(=O)NC(C(=O)O)c4cc(O)cc(O)c4-c4cc3ccc4O)C(O)c3ccc(c(Cl)c3)Oc3cc2cc(c3OC2OC(CNCc3ccccc3)C(O)C(O)C2OC2CC(C)(NCc3ccc(OCc4ccc(Cl)c(Cl)c4)cc3)C(O)C(C)O2)Oc2ccc(cc2Cl)C1O (stereo not drawn) [Compound 134] | 1 | 2 | 0.25 | 4 | 1.8
3 | CNC(CC(C)C)C(=O)NC1C(=O)NC(CC(N)=O)C(=O)NC2C(=O)NC3C(=O)NC(C(=O)NC(C(=O)O)c4cc(O)cc(O)c4-c4cc3ccc4O)C(O)c3ccc(c(Cl)c3)Oc3cc2cc(c3OC2OC(CNCCc3ccc(N)cc3)C(O)C(O)C2OC2CC(C)(NCc3ccc(OCc4ccc(Cl)c(Cl)c4)cc3)C(O)C(C)O2)Oc2ccc(cc2Cl)C1O (stereo not drawn) [Compound 135] | 1 | 4 | 0.06 | 4 | 2.3
4 | CNC(CC(C)C)C(=O)NC1C(=O)NC(CC(N)=O)C(=O)NC2C(=O)NC3C(=O)NC(C(=O)NC(C(=O)O)c4cc(O)cc(O)c4-c4cc3ccc4O)C(O)c3ccc(c(Cl)c3)Oc3cc2cc(c3OC2OC(CNCc3ccc(F)cc3)C(O)C(O)C2OC2CC(C)(NCc3ccc(OCc4ccc(Cl)c(Cl)c4)cc3)C(O)C(C)O2)Oc2ccc(cc2Cl)C1O (stereo not drawn) [Compound 136] | 1 | 4 | 0.12 | 4 | 2.3
5 | CNC(CC(C)C)C(=O)NC1C(=O)NC(CC(N)=O)C(=O)NC2C(=O)NC3C(=O)NC(C(=O)NC(C(=O)O)c4cc(O)cc(O)c4-c4cc3ccc4O)C(O)c3ccc(c(Cl)c3)Oc3cc2cc(c3OC2OC(CNCc3cccc(Cl)c3)C(O)C(O)C2OC2CC(C)(NCc3ccc(OCc4ccc(Cl)c(Cl)c4)cc3)C(O)C(C)O2)Oc2ccc(cc2Cl)C1O (stereo not drawn) [Compound 137] | 1 | 4 | 0.12 | 4 | 2.3
6 | CNC(CC(C)C)C(=O)NC1C(=O)NC(CC(N)=O)C(=O)NC2C(=O)NC3C(=O)NC(C(=O)NC(C(=O)O)c4cc(O)cc(O)c4-c4cc3ccc4O)C(O)c3ccc(c(Cl)c3)Oc3cc2cc(c3OC2OC(CNCc3ccc(OC)cc3)C(O)C(O)C2OC2CC(C)(NCc3ccc(OCc4ccc(Cl)c(Cl)c4)cc3)C(O)C(C)O2)Oc2ccc(cc2Cl)C1O (stereo not drawn) [Compound 138] | 1 | 8 | 0.5 | 4 | 3.4
7 | CNC(CC(C)C)C(=O)NC1C(=O)NC(CC(N)=O)C(=O)NC2C(=O)NC3C(=O)NC(C(=O)NC(C(=O)O)c4cc(O)cc(O)c4-c4cc3ccc4O)C(O)c3ccc(c(Cl)c3)Oc3cc2cc(c3OC2OC(CNCc3ccccc3N)C(O)C(O)C2OC2CC(C)(NCc3ccc(OCc4ccc(Cl)c(Cl)c4)cc3)C(O)C(C)O2)Oc2ccc(cc2Cl)C1O (stereo not drawn) [Compound 139] | 2 | 8 | 0.25 | 4 | 3.6
8 | CNC(CC(C)C)C(=O)NC1C(=O)NC(CC(N)=O)C(=O)NC2C(=O)NC3C(=O)NC(C(=O)NC(C(=O)O)c4cc(O)cc(O)c4-c4cc3ccc4O)C(O)c3ccc(c(Cl)c3)Oc3cc2cc(c3OC2OC(CNCC3CCCCN3)C(O)C(O)C2OC2CC(C)(NCc3ccc(OCc4ccc(Cl)c(Cl)c4)cc3)C(O)C(C)O2)Oc2ccc(cc2Cl)C1O (stereo not drawn) [Compound 140] | 2 | 4 | 0.5 | 8 | 3.6
9 | CNC(CC(C)C)C(=O)NC1C(=O)NC(CC(N)=O)C(=O)NC2C(=O)NC3C(=O)NC(C(=O)NC(C(=O)O)c4cc(O)cc(O)c4-c4cc3ccc4O)C(O)c3ccc(c(Cl)c3)Oc3cc2cc(c3OC2OC(CNCc3ccc(C)cc3)C(O)C(O)C2OC2CC(C)(NCc3ccc(OCc4ccc(Cl)c(Cl)c4)cc3)C(O)C(C)O2)Oc2ccc(cc2Cl)C1O (stereo not drawn) [Compound 141] | 2 | 4 | 1 | 8 | 3.8
10 | CNC(CC(C)C)C(=O)NC1C(=O)NC(CC(N)=O)C(=O)NC2C(=O)NC3C(=O)NC(C(=O)NC(C(=O)O)c4cc(O)cc(O)c4-c4cc3ccc4O)C(O)c3ccc(c(Cl)c3)Oc3cc2cc(c3OC2OC(CNCC3CCCO3)C(O)C(O)C2OC2CC(C)(NCc3ccc(OCc4ccc(Cl)c(Cl)c4)cc3)C(O)C(C)O2)Oc2ccc(cc2Cl)C1O (stereo not drawn) [Compound 142] | 2 | 4 | 2 | 8 | 4.0
11 | CNC(CC(C)C)C(=O)NC1C(=O)NC(CC(N)=O)C(=O)NC2C(=O)NC3C(=O)NC(C(=O)NC(C(=O)O)c4cc(O)cc(O)c4-c4cc3ccc4O)C(O)c3ccc(c(Cl)c3)Oc3cc2cc(c3OC2OC(CNCCc3ccccc3)C(O)C(O)C2OC2CC(C)(NCc3ccc(OCc4ccc(Cl)c(Cl)c4)cc3)C(O)C(C)O2)Oc2ccc(cc2Cl)C1O (stereo not drawn) [Compound 143] | 2 | 8 | 2 | 4 | 4.0
12 | CNC(CC(C)C)C(=O)NC1C(=O)NC(CC(N)=O)C(=O)NC2C(=O)NC3C(=O)NC(C(=O)NC(C(=O)O)c4cc(O)cc(O)c4-c4cc3ccc4O)C(O)c3ccc(c(Cl)c3)Oc3cc2cc(c3OC2OC(CNC3CCCC3)C(O)C(O)C2OC2CC(C)(NCc3ccc(OCc4ccc(Cl)c(Cl)c4)cc3)C(O)C(C)O2)Oc2ccc(cc2Cl)C1O (stereo not drawn) [Compound 144] | 2 | 4 | 2 | 8 | 4.0
